Measurements from patent US20050019746A1, “Apoptosis-related kinase/GPCRs” (EiRx Therapeutics Limited, priority 2003, published 2005).

How the values were obtained:
Format in all cases: cell-based, human
[1] = test system: HCT15 cells; experiment: 10-14 day Clonagenicity Assay (MTT), HCT15; conditions: for percentage survival relative to the missense, n = 1: independent experiment n = 1, dilution point of maximum toxicity; for percentage survival relative to the missense, n = 2: independent experiment n = 2, dilution point of maximum toxicity
In short: (§1)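 Extended-growth viability screen: siRNA transfected at 2 μg/ml into six serially diluted seed densities, quantified by MTT at 10-14 days. Hits needed significant loss versus missense (non-overlapping standard error bars) across two densities; maximum-toxicity point reported as mean % viability.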

[2] = test system: A549 cells; experiment: 10-14 day Clonagenicity Assay (MTT), A549; conditions: for percentage survival relative to the missense, n = 1: independent experiment n = 1, dilution point of maximum toxicity; for percentage survival relative to the missense, n = 2: independent experiment n = 2, dilution point of maximum toxicity; for percentage survival relative to the missense, n = 3: independent experiment n = 3, dilution point of maximum toxicity
In short: as §1

[3] = test system: SKOV3 cells; experiment: 10-14 day Clonagenicity Assay (MTT), SKOV3; conditions: for percentage survival relative to the missense, n = 1: independent experiment n = 1, dilution point of maximum toxicity; for percentage survival relative to the missense, n = 2: independent experiment n = 2, dilution point of maximum toxicity; for percentage survival relative to the missense, n = 3: independent experiment n = 3, dilution point of maximum toxicity
In short: as §1

[4] = test system: DU145 cells; experiment: 10-14 day Clonagenicity Assay (MTT), DU145; conditions: for percentage survival relative to the missense, n = 2: independent experiment n = 2, dilution point of maximum toxicity; for percentage survival relative to the missense, n = 3: independent experiment n = 3, dilution point of maximum toxicity
Text: (§2) The Clonagenicity Assay represents a Cell Viability Screen that allows assessment of a cytotoxic insult at a variety of seed densities of cancer cell lines over an extended period of logarithmic growth, such that the definitive effect of the test substance can be accurately quantified. In this instance, the ‘cytotoxic insult’ to be tested involves the transfection of siRNA Oligomers to knockdown the expression of novel target Kinases and GPCRs as outlined previously. Cell number is quantified 10-14 days post siRNA transfection by MTT conversion as described in detail in Example 6.
(§3) The Clonagenicity Assay is optimised for each cell line examined with respect to seed number. The seed number varies for each cell line and accounts for the differences in cell size, growth rate and sensitivity to transfection-induced toxicity for each cell line pursued. Cells lines given as models for this example include HCT15, MCF7, A549, SKOV3, DU145, U251, PC3, A498 and HeLa. The siRNA oligo to Survivin serves as a positive control for toxicity in this assay and the missense control oligomer acts as a negative control as described in detail in Examples 5 and 6. The c-Raf, BCL2 and PI3K siRNA oligomers serve as additional controls as previously mentioned. The Clonagenicity assay is performed as outlined below.
(§4) Cells are seeded into a 96-well plate as described below and allowed to adhere overnight at 37° C. in a humidified atmosphere containing 5% CO2 in air. Wells are seeded with an appropriate cell number (cell line dependent) in Column 1 of the 96 well plates and this cell suspension is diluted 1 in 2 across the 96 well plates from Column 1 through to 6 (represented on the x-axis in results). Cells are next transfected with siRNA Oligomers, at a concentration of 2 μg/ml, against the genes of interest. Transfections continue for 4 hrs after which the transfection solution is removed and cells are refed with fresh medium and allow to incubate overnight. An additional media change@24 hrs post transfection is made to minimise toxicity of the transfection reagent. Cells are subsequently incubated for a 10-14 Day period post transfection at a 37° C. incubation as described above. Medium is renewed weekly following which MTT quantification is performed as described in Example 5.
(§5) To be considered cytotoxic, the siRNA Oligo against the gene target must induce a decreased viability in a cell line across at least 2 seed densities in the clonagenicity assay, such that a significant difference between the target gene and MS is observed i.e. no crossing of the Standard Error bars is detected. The average percentage viability, relative to missense, is recorded for the dilution point at which Maximum Toxicity is induced is recorded in Table 13.
(§6) Table 13 Clonagenicity Assay—This table gives the average percentage survival of the indicated cell lines relative to the missense in a clonagenicity assay, over 3 independent experiments. As an internal reference, the known survival gene ‘Survivin’, BCL2, c-Raf and PI3KR1 was also targeted by siRNA. When no Cytotoxic response is detected ‘-’ is recorded.

[5] = test system: PC3 cells; experiment: 10-14 day Clonagenicity Assay (MTT), PC3; conditions: for percentage survival relative to the missense, n = 1: independent experiment n = 1, dilution point of maximum toxicity; for percentage survival relative to the missense, n = 2: independent experiment n = 2, dilution point of maximum toxicity; for percentage survival relative to the missense, n = 3: independent experiment n = 3, dilution point of maximum toxicity
Text: as §2, §3, §4, §5, §6

[6] = test system: A498 cells; experiment: 10-14 day Clonagenicity Assay (MTT), A498; conditions: for percentage survival relative to the missense, n = 1: independent experiment n = 1, dilution point of maximum toxicity; for percentage survival relative to the missense, n = 3: independent experiment n = 3, dilution point of maximum toxicity
In short: as §1

siRNA EKI: siRNA duplex, sense GCACUGGAUCCAAAGCAUGtt, antisense CAUGCUUUGGAUCCAGUGCtt; same in Tables 9 and 11 (sense GCACUGGAUCCAAAGCAUGTT; antisense CAUGCUUUGGAUCCAGUGCTT; chemistry not given here)
percentage survival relative to the missense, n = 1 [1]: 63.5%
percentage survival relative to the missense, n = 2 [1]: 60.6%
percentage survival relative to the missense, n = 1 [2]: 27.1%
percentage survival relative to the missense, n = 2 [2]: 30.9%
percentage survival relative to the missense, n = 3 [2]: 49.1%
percentage survival relative to the missense, n = 1 [3]: 10.5%
percentage survival relative to the missense, n = 2 [3]: 19.8%
percentage survival relative to the missense, n = 3 [3]: 20.6%
percentage survival relative to the missense, n = 2 [4]: 62.2%
percentage survival relative to the missense, n = 1 [5]: 62%
percentage survival relative to the missense, n = 2 [5]: 40.4%
percentage survival relative to the missense, n = 3 [5]: 39.7%
percentage survival relative to the missense, n = 1 [6]: 21.6%
percentage survival relative to the missense, n = 3 [6]: 15.4%

siRNA FLT4: sense GUACGGCAACCUCUCCAACtt, antisense GUUGGAGAGGUUGCCGUACtt (sense GUACGGCAACCUCUCCAACTT; antisense GUUGGAGAGGUUGCCGUACTT; chemistry not given here)
percentage survival relative to the missense, n = 1 [1]: 64.5%
percentage survival relative to the missense, n = 2 [1]: 48.1%
percentage survival relative to the missense, n = 1 [2]: 45.4%
percentage survival relative to the missense, n = 3 [2]: 28.7%
percentage survival relative to the missense, n = 2 [3]: 61%
percentage survival relative to the missense, n = 3 [3]: 56.5%
percentage survival relative to the missense, n = 2 [4]: 52.7%
percentage survival relative to the missense, n = 3 [4]: 32.6%
percentage survival relative to the missense, n = 2 [5]: 71.7%
percentage survival relative to the missense, n = 3 [5]: 8.4%
percentage survival relative to the missense, n = 3 [6]: 10%

siRNA GRAF: siRNA duplex, sense GCGGAAGUUUGCAGAUUCCtt, antisense GGAAUCUGCAAACUUCCGCtt; same in Tables 9 and 11 (sense GCGGAAGUUUGCAGAUUCCTT; antisense GGAAUCUGCAAACUUCCGCTT; chemistry not given here)
percentage survival relative to the missense, n = 1 [3]: 82.2%
percentage survival relative to the missense, n = 1 [6]: 92.6%
percentage survival relative to the missense, n = 3 [6]: 49.9%

siRNA MAK: sense GAAGCCAAGCAUGGGUGUUtt, antisense AACACCCAUGCUUGGCUUCtt (sense GAAGCCAAGCAUGGGUGUUTT; antisense AACACCCAUGCUUGGCUUCTT; chemistry not given here)
percentage survival relative to the missense, n = 1 [1]: 75.9%
percentage survival relative to the missense, n = 2 [1]: 67.3%
percentage survival relative to the missense, n = 1 [2]: 51.6%
percentage survival relative to the missense, n = 3 [2]: 42.8%
percentage survival relative to the missense, n = 1 [3]: 25.6%
percentage survival relative to the missense, n = 2 [3]: 40.3%
percentage survival relative to the missense, n = 2 [4]: 57.2%
percentage survival relative to the missense, n = 3 [4]: 55.4%
percentage survival relative to the missense, n = 1 [5]: 69.6%
percentage survival relative to the missense, n = 1 [6]: 19.4%
percentage survival relative to the missense, n = 3 [6]: 51.6%

siRNA MAPKK5: sense GAGGACAGGUUAAGCUGUGtt, antisense CACAGCUUAACCUGUCCUCtt (sense GAGGACAGGUUAAGCUGUGTT; antisense CACAGCUUAACCUGUCCUCTT; chemistry not given here)
percentage survival relative to the missense, n = 1 [1]: 65.3%
percentage survival relative to the missense, n = 2 [1]: 61.2%
percentage survival relative to the missense, n = 1 [2]: 48.5%
percentage survival relative to the missense, n = 1 [3]: 18.5%
percentage survival relative to the missense, n = 3 [3]: 53.7%
percentage survival relative to the missense, n = 3 [4]: 13.6%
percentage survival relative to the missense, n = 1 [5]: 30.5%
percentage survival relative to the missense, n = 3 [5]: 8.3%
percentage survival relative to the missense, n = 1 [6]: 10.2%
percentage survival relative to the missense, n = 3 [6]: 6.9%

siRNA MKNK: sense UACAUGGCCCCUGAGGUAGtt, antisense CUACCUCAGGGGCCAUGUAtt (sense UACAUGGCCCCUGAGGUAGTT; antisense CUACCUCAGGGGCCAUGUATT; chemistry not given here)
percentage survival relative to the missense, n = 1 [1]: 36%
percentage survival relative to the missense, n = 1 [2]: 11.5%
percentage survival relative to the missense, n = 2 [2]: 67.9%
percentage survival relative to the missense, n = 3 [2]: 23.3%
percentage survival relative to the missense, n = 1 [3]: 14%
percentage survival relative to the missense, n = 3 [3]: 34.3%
percentage survival relative to the missense, n = 3 [4]: 33.9%
percentage survival relative to the missense, n = 3 [5]: 8.4%
percentage survival relative to the missense, n = 1 [6]: 15.4%
percentage survival relative to the missense, n = 3 [6]: 2.7%

siRNA MPSK1: sense GGGUUAUGCCCACAGAGACtt, antisense GUCUCUGUGGGCAUAACCCtt (sense GGGUUAUGCCCACAGAGACTT; antisense GUCUCUGUGGGCAUAACCCTT; chemistry not given here)
percentage survival relative to the missense, n = 1 [1]: 68.3%
percentage survival relative to the missense, n = 1 [3]: 57.2%
percentage survival relative to the missense, n = 1 [6]: 44.7%
percentage survival relative to the missense, n = 3 [6]: 20.9%

siRNA NTKL: siRNA duplex, sense UGUGGAGCUGAUGAAGCACtt, antisense GUGCUUCAUCAGCUCCACAtt; same in Tables 9 and 11 (sense UGUGGAGCUGAUGAAGCACTT; antisense GUGCUUCAUCAGCUCCACATT; chemistry not given here)
percentage survival relative to the missense, n = 1 [1]: 59.5%
percentage survival relative to the missense, n = 2 [1]: 55.3%
percentage survival relative to the missense, n = 1 [2]: 18.9%
percentage survival relative to the missense, n = 2 [2]: 45.3%
percentage survival relative to the missense, n = 3 [2]: 28.1%
percentage survival relative to the missense, n = 1 [3]: 6.2%
percentage survival relative to the missense, n = 2 [3]: 18.8%
percentage survival relative to the missense, n = 3 [3]: 14.9%
percentage survival relative to the missense, n = 1 ([4]; independent experiment n = 1, dilution point of maximum toxicity): 27.8%
percentage survival relative to the missense, n = 2 [4]: 35.1%
percentage survival relative to the missense, n = 3 [4]: 25.4%
percentage survival relative to the missense, n = 1 [5]: 11.6%
percentage survival relative to the missense, n = 2 [5]: 45.7%
percentage survival relative to the missense, n = 3 [5]: 14.4%
percentage survival relative to the missense, n = 1 [6]: 12.3%
percentage survival relative to the missense, n = 3 [6]: 7.2%

siRNA P14KB: sense GCUACGGAAGCUGAUCCUCtt, antisense GAGGAUCAGCUUCCGUAGCtt (sense GCUACGGAAGCUGAUCCUCTT; antisense GAGGAUCAGCUUCCGUAGCTT; chemistry not given here)
percentage survival relative to the missense, n = 3 [2]: 63.4%
percentage survival relative to the missense, n = 1 [3]: 12.3%
percentage survival relative to the missense, n = 2 [3]: 56%
percentage survival relative to the missense, n = 3 [3]: 44.8%
percentage survival relative to the missense, n = 3 [4]: 26.1%
percentage survival relative to the missense, n = 3 [5]: 8.4%
percentage survival relative to the missense, n = 1 [6]: 19.3%
percentage survival relative to the missense, n = 3 [6]: 15.1%

siRNA PCTAIRE: sense GUCAGUGCCCACAAAGACUtt, antisense AGUCUUUGUGGGCACUGACtt (sense GUCAGUGCCCACAAAGACUTT; antisense AGUCUUUGUGGGCACUGACTT; chemistry not given here)
percentage survival relative to the missense, n = 1 [3]: 68.6%
percentage survival relative to the missense, n = 1 [6]: 24.9%
percentage survival relative to the missense, n = 3 [6]: 48.4%

siRNA PSKH1: sense GAACCUGCACCGCUCCAUAtt, antisense UAUGGAGCGGUGCAGGUUCtt (sense GAACCUGCACCGCUCCAUATT; antisense UAUGGAGCGGUGCAGGUUCTT; chemistry not given here)
percentage survival relative to the missense, n = 1 [1]: 28.2%
percentage survival relative to the missense, n = 1 [2]: 51.7%
percentage survival relative to the missense, n = 1 [3]: 48%
percentage survival relative to the missense, n = 1 [5]: 29.8%
percentage survival relative to the missense, n = 1 [6]: 54.8%
percentage survival relative to the missense, n = 3 [6]: 10%
